Source: the supplement of paper PMC10307832

Legend:
Experiment in all cases: relative viability (nuclei count vs DMSO), 5 days (fraction); higher = more cells survive
AZ628 + Olaparib = compound: CC1=C(C=C(C=C1)NC(=O)C2=CC(=CC=C2)C(C)(C)C#N)NC3=CC4=C(C=C3)N=CN(C4=O)C [AZ628] + O=C(c1cc(Cc2n[nH]c(=O)c3ccccc23)ccc1F)N1CCN(C(=O)C2CC2)CC1 [Olaparib] (partner 8 µM)
How it was run: (§1)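 Five library-drug doses in √10 steps were combined with a fixed anchor-drug dose, or a single drug was given alone, by pin tool to lung cancer cell lines in 1536-well plates the day after seeding. Nuclei were stained and counted after 5 days. Relative viability is the nuclei count in treated wells over that in vehicle wells, taken as the median of duplicate plates.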

Darinaparsin + Lapatinib = compound: C[As](C)SC[C@H](NC(=O)CC[C@H](N)C(=O)O)C(=O)NCC(=O)O [Darinaparsin] + CS(=O)(=O)CCNCc1ccc(-c2ccc3ncnc(Nc4ccc(OCc5cccc(F)c5)c(Cl)c4)c3c2)o1 [Lapatinib] (partner 2 µM)
How it was run: as §1

AZ628 + Luminespib = compound: CC1=C(C=C(C=C1)NC(=O)C2=CC(=CC=C2)C(C)(C)C#N)NC3=CC4=C(C=C3)N=CN(C4=O)C [AZ628] + CCNC(=O)c1noc(-c2cc(C(C)C)c(O)cc2O)c1-c1ccc(CN2CCOCC2)cc1 [Luminespib] (partner 0.01 µM)
How it was run: as §1

[1] = compound: C[As](C)SC[C@H](NC(=O)CC[C@H](N)C(=O)O)C(=O)NCC(=O)O [Darinaparsin] + Nc1ncn([C@H]2C[C@H](O)[C@@H](CO)O2)c(=O)n1 [Decitabine] (partner 2 µM)
How it was run: as §1

Cell Line	relative viability (AZ628 + Olaparib; first compound 0.08 µM)	relative viability (AZ628 + Olaparib; first compound 0.253 µM)	relative viability (AZ628 + Olaparib; first compound 0.8 µM)	relative viability (AZ628 + Olaparib; first compound 2.53 µM)	relative viability (AZ628 + Olaparib; first compound 8 µM)	relative viability (Darinaparsin + Lapatinib; first compound 0.08 µM)	relative viability (Darinaparsin + Lapatinib; first compound 0.8 µM)	relative viability (Darinaparsin + Lapatinib; first compound 2.53 µM)	relative viability (AZ628 + Luminespib; first compound 0.08 µM)	relative viability (AZ628 + Luminespib; first compound 0.253 µM)	relative viability (AZ628 + Luminespib; first compound 0.8 µM)	relative viability (AZ628 + Luminespib; first compound 2.53 µM)	relative viability (AZ628 + Luminespib; first compound 8 µM)	relative viability ([1]; first compound 0.08 µM)	relative viability ([1]; first compound 0.8 µM)	relative viability ([1]; first compound 2.53 µM)	relative viability ([1]; first compound 8 µM)	relative viability (Darinaparsin + Lapatinib; first compound 8 µM)
NCI-H460	0.543	0.397	0.342	0.414	0.371	1.03	1.3	0.731	0.0338	0.033	0.0403	0.0274	0.0264	0.749	0.496	0.461	0.59	–
NCI-H520	0.358	0.32	0.325	0.396	0.23	1.11	0.817	0.802	0.21	0.219	0.209	0.219	0.203	0.528	0.55	0.472	0.552	0.794
NCI-H596	0.76	0.793	0.703	0.799	0.651	1.1	1.02	1.01	0.931	1.11	1.02	0.984	0.829	1.02	1.11	1	1.15	1.06
NCI-H647	0.848	0.616	0.495	0.551	0.573	1.28	0.926	0.833	0.155	0.132	0.221	0.186	0.186	0.444	0.39	0.346	0.476	1.42
NCI-H650	0.43	0.462	0.482	0.512	0.627	0.87	0.703	0.897	0.935	0.816	0.909	0.843	0.63	0.296	0.35	0.333	0.338	0.886
NCI-H661	0.748	0.702	0.699	0.727	0.644	0.509	0.584	0.513	1.03	0.941	0.912	0.961	0.731	0.581	0.528	0.523	0.652	0.511
NCI-H727	0.603	–	–	0.506	0.333	0.872	0.545	0.79	0.343	0.337	0.228	0.277	0.203	0.891	0.816	0.9	1.04	0.967
NCI-H838	0.765	0.821	0.713	0.727	0.623	1.23	0.835	0.831	0.305	0.318	0.336	0.386	0.246	0.488	0.425	0.47	0.513	1.32
NCI-H1355	0.73	0.784	0.684	0.745	0.574	1.11	0.845	0.893	0.756	0.716	0.705	0.667	0.646	0.38	0.357	0.304	0.369	1.17
NCI-H1395	0.478	0.458	0.443	0.461	0.447	1.3	0.949	1.03	0.701	0.763	0.688	0.808	0.686	0.79	0.659	0.727	0.645	1.37
NCI-H1437	0.584	0.605	0.767	0.597	0.54	1.15	0.769	0.719	1.23	1.06	1.09	1.16	1.14	0.653	0.565	0.583	0.599	0.974
NCI-H1650	0.839	0.866	0.847	0.766	0.909	1	0.764	0.779	0.206	0.18	0.201	0.203	0.206	0.325	0.41	0.397	0.359	0.938
NCI-H1651	0.171	0.186	0.172	0.184	0.191	1.01	0.881	0.759	0.92	0.825	0.919	0.955	0.61	0.589	0.66	0.596	0.665	1.09
NCI-H1666	0.733	0.745	0.671	0.739	0.782	0.763	0.587	0.59	0.978	0.882	0.848	0.843	0.829	0.679	0.74	0.766	0.786	0.701
NCI-H1734	0.684	0.584	0.516	0.6	0.382	1.87	1.01	0.951	0.224	0.19	0.153	0.172	0.142	0.558	0.483	0.504	0.529	1.31
NCI-H1755	0.917	0.869	0.86	0.832	0.845	1.1	0.981	1.01	0.326	0.446	0.443	0.421	0.278	0.748	0.801	0.714	0.784	1.46
NCI-H1792	0.508	0.332	0.382	0.293	0.26	1.26	0.83	0.696	0.528	0.372	0.334	0.435	0.192	0.694	0.512	–	0.588	0.927
NCI-H1793	0.971	0.805	0.717	0.819	0.445	0.675	0.632	0.902	0.182	0.19	0.202	0.132	0.173	0.461	0.483	–	0.485	0.916
